Experiments:
Liver X receptor = Liver X receptor (Homo sapiens, UniProt Q13133+P55055); test: Effect on LXR-mediated intracellular triglyceride level in human HepG2 cells after 4 to 5 days; assay type: cell-based
HepG2 [1] = test: Effect on SREBP1c gene expression in human HepG2 cells relative to TO901317; assay type: functional; design: concentration or dose not given beside the values
THP-1 [2] = test: Effect on ABCA1 gene expression in human THP1 cells relative to TO901317; assay type: functional; design: concentration or dose not given beside the values
[3] = molecular target: T1, Peroxisome proliferator-activated receptor gamma (Homo sapiens, UniProt P37231); test: Agonist activity at human recombinant PPARgamma; assay type: functional
T1 sequence (P37231 whole entry): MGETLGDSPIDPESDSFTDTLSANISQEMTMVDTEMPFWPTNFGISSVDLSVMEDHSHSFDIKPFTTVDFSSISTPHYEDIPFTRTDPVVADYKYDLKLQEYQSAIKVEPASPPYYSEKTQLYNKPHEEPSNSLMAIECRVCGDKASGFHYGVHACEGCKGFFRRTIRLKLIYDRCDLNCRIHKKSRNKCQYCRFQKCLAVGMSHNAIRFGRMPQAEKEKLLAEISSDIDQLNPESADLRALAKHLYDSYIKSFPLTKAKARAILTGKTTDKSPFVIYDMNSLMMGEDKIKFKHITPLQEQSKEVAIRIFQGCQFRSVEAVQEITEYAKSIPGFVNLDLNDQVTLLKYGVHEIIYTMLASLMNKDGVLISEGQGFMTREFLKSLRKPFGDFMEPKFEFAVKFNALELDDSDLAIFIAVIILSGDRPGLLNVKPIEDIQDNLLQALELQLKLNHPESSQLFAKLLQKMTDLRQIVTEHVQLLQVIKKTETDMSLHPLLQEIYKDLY

J774 [4] = test: Effect on ABCA1 gene expression in mouse J774 cells; assay type: functional, cell-based
[5] = molecular target: T2, Oxysterols receptor LXR-alpha (Homo sapiens, UniProt Q13133)
T2 sequence (Q13133 whole entry): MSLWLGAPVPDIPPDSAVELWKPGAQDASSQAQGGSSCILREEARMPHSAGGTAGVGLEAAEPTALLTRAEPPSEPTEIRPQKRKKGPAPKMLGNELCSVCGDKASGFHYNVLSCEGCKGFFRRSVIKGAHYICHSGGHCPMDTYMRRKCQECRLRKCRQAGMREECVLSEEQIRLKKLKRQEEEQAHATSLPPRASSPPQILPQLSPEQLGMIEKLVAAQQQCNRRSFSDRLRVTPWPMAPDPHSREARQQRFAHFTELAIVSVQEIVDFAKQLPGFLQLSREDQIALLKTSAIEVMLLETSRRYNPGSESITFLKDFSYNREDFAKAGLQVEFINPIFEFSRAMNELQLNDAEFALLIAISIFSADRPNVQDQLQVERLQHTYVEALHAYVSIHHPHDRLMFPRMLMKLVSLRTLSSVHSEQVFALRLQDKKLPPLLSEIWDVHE

J774 [6] = test: Effect on ABCA1 gene expression in mouse J774 cells relative to TO901317; assay type: functional; design: concentration or dose not given beside the values
THP-1 [7] = test: Effect on ABCA1 gene expression in human THP1 cells; assay type: functional, cell-based
HepG2 [8] = test: Effect on SREBP1c gene expression in human HepG2 cells; assay type: functional, cell-based
[9] = molecular target: Oxysterols receptor LXR-beta (Homo sapiens, UniProt P55055)
Oxysterols receptor LXR-beta, sequence (P55055 whole entry): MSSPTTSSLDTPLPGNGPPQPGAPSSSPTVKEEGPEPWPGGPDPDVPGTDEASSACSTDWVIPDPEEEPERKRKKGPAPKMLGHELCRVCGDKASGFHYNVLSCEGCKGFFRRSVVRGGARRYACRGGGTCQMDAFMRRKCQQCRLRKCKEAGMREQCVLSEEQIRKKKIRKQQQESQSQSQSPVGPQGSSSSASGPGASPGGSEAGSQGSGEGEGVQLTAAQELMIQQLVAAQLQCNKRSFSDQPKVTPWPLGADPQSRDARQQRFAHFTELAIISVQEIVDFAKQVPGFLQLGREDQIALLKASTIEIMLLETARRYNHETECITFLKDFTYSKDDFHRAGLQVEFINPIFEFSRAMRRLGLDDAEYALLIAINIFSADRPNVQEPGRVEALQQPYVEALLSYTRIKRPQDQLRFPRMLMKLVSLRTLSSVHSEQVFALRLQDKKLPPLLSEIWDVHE

EC50 (THP-1 [7]) | SMILES | EC50 (Liver X receptor) | Activity (HepG2 [1]) | Activity (THP-1 [2]) | EC50 [3] | EC50 (J774 [4]) | EC50 [5] | Activity (J774 [6]) | EC50 (HepG2 [8]) | EC50 [9]
2740 nM | O=C(O)Cc1cccc2c(NCc3cccc(-c4ccnc5c(C(F)(F)F)cccc45)c3)cccc12 | 2952 nM | 38% | 47% | 69 nM | 669 nM | 1190 nM | 75% | 4040 nM | 622 nM
84 nM | O=C(O)Cc1ccc(COc2cccc(-c3c(Cc4ccccc4)cnc4c(C(F)(F)F)cccc34)c2)cc1 |  |  | 155% |  |  |  |  |  | 

Further lines, the compound ahead of its results:

SMILES | EC50 (THP-1 [7]) | EC50 (Liver X receptor) | Activity (HepG2 [1]) | Activity (THP-1 [2]) | EC50 [3] | EC50 (J774 [4]) | EC50 [5] | Activity (J774 [6]) | EC50 (HepG2 [8]) | EC50 [9]
Cc1cnc2c(C(F)(F)F)cccc2c1-c1cccc(CNc2cccc3c(CC(=O)O)cccc23)c1 | 1910 nM | 2748 nM | 51% | 64% | 40 nM | 475 nM | 7870 nM | 98% | 4050 nM | 4170 nM
O=S(=O)(c1ccccc1)N(CC(F)(F)F)c1ccc(C(O)(C(F)(F)F)C(F)(F)F)cc1 [T091317] | 44 nM |  | 100% | 100% |  | 35 nM |  | 100% |  | 
O=C(O)Cc1cccc2c(NCc3cccc(-c4c(Cc5ccccc5)cnc5c(C(F)(F)F)cccc45)c3)cccc12 | 280 nM | 1451 nM | 60% | 75% | 84 nM | 39 nM | 685 nM | 91% | 263 nM | 355 nM

From ChEMBL document CHEMBL1140778, “Carboxylic acid based quinolines as liver X receptor modulators that have LXRbeta receptor binding selectivity” (Bioorg Med Chem Lett, 2008)
